Holding throughout (type): biochemical
The target of test [1] is Recombinant human JAK3 catalytic domain (Homo sapiens (Human), UniProt P52333). The test is described as follows: JAK3 inhibition assay. The conditions noted are these: average ± standard error of the mean; 1 μM ATP. The method, then: Recombinant human JAK3 catalytic domain (amino acids 781-1124; catalog number PV3855) was purchased from Invitrogen. 0.025 mU of JAK3 was incubated with 2.5 μg polyGT substrate (Sigma catalog number P0275) in kinase reaction buffer (25 mM Tris pH 7.5, 0.5 mM EGTA, 0.5 mM Na3VO4, 5 mM b-glycerolphosphate, 0.01% Triton X-100, 1 μM non-radioactive ATP, 0.25 μCi ^33P-gamma-ATP (GE Healthcare, catalog number AH9968) final concentrations) with or without 5 μL containing test compound or vehicle (DMSO, 1% final concentration), in a total volume of 25 μL, in a polypropylene 96-well plate (Greiner, V-bottom). After 105 min at 30° C., reactions were stopped by adding of 25 μL/well of 150 mM phosphoric acid. […] 40 μL/well of Microscint-20 was added, the top of the plates was sealed and readout was performed using the Topcount (Perkin Elmer). Kinase activity was calculated by subtracting counts per minute (cpm) obtained in the presence of a positive control inhibitor (10 μM staurosporine) from cpm obtained in the presence of vehicle. The ability of a test compound to inhibit this activity was determined as: Percentage inhibition=((cpm determined for sample with test compound present−cpm determined for sample with positive control inhibitor) divided by (cpm determined in the presence of vehicle−cpm determined for sample with positive control inhibitor))*100. […]
Recombinant human JAK3 catalytic domain, sequence (P52333 781-1124): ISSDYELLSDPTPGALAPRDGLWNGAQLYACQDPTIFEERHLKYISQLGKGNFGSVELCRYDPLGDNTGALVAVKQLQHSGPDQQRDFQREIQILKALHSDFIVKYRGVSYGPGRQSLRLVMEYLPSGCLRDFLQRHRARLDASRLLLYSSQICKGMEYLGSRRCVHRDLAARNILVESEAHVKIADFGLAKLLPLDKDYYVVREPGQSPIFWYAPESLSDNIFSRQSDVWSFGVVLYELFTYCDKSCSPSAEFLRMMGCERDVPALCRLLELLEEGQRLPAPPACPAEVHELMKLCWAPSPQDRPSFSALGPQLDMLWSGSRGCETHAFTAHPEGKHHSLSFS

Test [2] deals with Recombinant human JAK2 (catalytic domain) (Homo sapiens (Human), UniProt O60674). The test is described as follows: JAK2 inhibition assay. The conditions noted are these: average ± standard error of the mean; 7.5 μM ATP. The method, then: Recombinant human JAK2 (catalytic domain, amino acids 866-1154; catalog number PV4210) was purchased from Invitrogen. 0.0125 mU of JAK2 was incubated with 25 nM Ulight-JAK1(tyr1023) peptide (Perkin Elmer catalog number TRF0121) in kinase reaction buffer (41.66 mM HEPES pH7.0, 0.016% Triton X-100, 12.5 mM MgCl2, 3.33 mM DTT, 7.5 μM ATP) with or without 4 μL containing test compound or vehicle (DMSO, 1% final concentration), in a total volume of 20 μL, in a white 384 Luminotrac 200 plate (Greiner, catalog number 781075). […] Readout is performed using the Envision with excitation at 320nm and measuring emission at 615 nm (Perkin Elmer). Kinase activity was calculated by subtracting relative fluorescence units (RFU) obtained in the presence of a positive control inhibitor (10 μM staurosporine) from RFU obtained in the presence of vehicle. The ability of a test compound to inhibit this activity was determined as: Percentage inhibition=((RFU determined for sample with test compound present−RFU determined for sample with positive control inhibitor) divided by (RFU determined in the presence of vehicle−RFU determined for sample with positive control inhibitor))*100. […]
Recombinant human JAK2 (catalytic domain), sequence (O60674 849-1124): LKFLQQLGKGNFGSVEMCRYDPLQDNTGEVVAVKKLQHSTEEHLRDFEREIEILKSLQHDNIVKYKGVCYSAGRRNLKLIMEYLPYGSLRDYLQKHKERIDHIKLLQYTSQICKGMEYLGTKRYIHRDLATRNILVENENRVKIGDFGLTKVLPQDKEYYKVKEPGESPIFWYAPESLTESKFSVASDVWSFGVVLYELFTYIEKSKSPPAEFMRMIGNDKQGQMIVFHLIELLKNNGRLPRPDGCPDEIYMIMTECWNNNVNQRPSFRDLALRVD

The target in test [3] is JAK3 (Homo sapiens (Human), UniProt P52333). The test is described as follows: JAK3 Ki determination assay. The following applies: Lineweaver-Burk; polyGT substrate, 33P readout. The source says:
For the determination of Ki, different amounts of inhibitor were mixed with the enzyme and the enzymatic reaction was followed as a function of ATP concentration.

In test [4] the target is JAK1 (Homo sapiens (Human), UniProt P23458). The test is described as follows: JAK1 Ki determination assay (polyGT, 33P filter plate). The conditions noted are these: Lineweaver-Burk; polyGT substrate, 33P readout.
JAK1, sequence (P23458 866-1154): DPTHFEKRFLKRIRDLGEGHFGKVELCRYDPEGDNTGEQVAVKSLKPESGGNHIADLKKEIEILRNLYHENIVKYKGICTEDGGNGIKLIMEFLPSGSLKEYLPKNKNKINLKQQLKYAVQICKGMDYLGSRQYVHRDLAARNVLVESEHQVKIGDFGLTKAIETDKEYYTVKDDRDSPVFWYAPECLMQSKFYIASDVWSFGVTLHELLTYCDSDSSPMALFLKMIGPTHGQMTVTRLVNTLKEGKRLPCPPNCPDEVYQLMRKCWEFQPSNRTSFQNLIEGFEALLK
Description: For the determination of Ki, different amounts of inhibitor were mixed with the enzyme and the enzymatic reaction was followed as a function of ATP concentration. The Ki was determined by means of double reciprocal plotting of Km vs compound concentration (Lineweaver-Burk plot). JAK1 (Invitrogen, PV4774) was used at a final concentration of 500 ng/ml. […] Measurement of incorporated phosphate into the substrate polyGT was done by loading the samples on a filter plate (using a harvester, Perkin Elmer) and subsequent washing. Incorporated ^33P in polyGT is measured in a Topcount scintillation counter after addition of scintillation liquid to the filter plates (Perkin Elmer).

The values below come from patent US8796457B2, “Compound useful for the treatment of degenerative and inflammatory diseases” (Galapagos NV, priority 2009, dated 2014).

JAK3, sequence (P52333 whole entry): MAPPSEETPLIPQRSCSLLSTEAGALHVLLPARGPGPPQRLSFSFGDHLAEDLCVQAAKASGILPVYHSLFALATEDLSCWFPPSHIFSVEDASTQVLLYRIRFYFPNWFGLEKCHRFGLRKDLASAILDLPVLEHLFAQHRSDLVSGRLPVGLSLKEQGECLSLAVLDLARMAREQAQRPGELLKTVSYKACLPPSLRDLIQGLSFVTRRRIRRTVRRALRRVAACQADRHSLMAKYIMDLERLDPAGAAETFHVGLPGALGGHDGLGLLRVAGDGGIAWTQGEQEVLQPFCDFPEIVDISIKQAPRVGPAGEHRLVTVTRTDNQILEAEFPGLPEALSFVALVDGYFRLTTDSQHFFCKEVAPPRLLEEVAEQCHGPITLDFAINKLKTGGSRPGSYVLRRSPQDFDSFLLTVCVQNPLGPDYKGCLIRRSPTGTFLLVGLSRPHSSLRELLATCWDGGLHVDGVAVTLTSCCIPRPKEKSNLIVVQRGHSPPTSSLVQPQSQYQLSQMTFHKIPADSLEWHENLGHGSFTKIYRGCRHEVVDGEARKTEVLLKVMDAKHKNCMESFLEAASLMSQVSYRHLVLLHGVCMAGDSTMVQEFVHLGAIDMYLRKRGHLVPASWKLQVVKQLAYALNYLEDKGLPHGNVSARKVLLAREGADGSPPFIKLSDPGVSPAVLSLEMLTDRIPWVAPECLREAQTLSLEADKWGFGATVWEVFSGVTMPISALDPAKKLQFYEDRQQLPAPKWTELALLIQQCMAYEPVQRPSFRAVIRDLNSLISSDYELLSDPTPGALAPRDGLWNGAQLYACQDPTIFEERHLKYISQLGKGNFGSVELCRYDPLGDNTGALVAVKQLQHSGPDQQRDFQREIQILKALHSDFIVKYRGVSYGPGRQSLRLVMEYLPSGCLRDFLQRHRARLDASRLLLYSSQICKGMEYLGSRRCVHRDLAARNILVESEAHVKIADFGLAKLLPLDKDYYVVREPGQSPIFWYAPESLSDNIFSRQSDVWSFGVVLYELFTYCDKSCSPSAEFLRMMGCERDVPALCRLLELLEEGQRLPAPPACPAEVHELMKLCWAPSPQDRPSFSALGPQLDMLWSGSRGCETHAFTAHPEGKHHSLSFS

As for `CC1(C)CN(C(=O)c2ccc(-c3cccc4nc(NC(=O)C5CC5)nn34)cc2)C1` [Compound 1, Cyclopropanecarboxylic acid{5-[4-(3,3-dimethyl-azetidine-1-carbonyl)-phenyl]-[1,2,4]triazolo[1,5-a]pyridin-2-yl}-amide], the IC50 in test [1] came to 408 ± 62 nM; in test [2] it was 67 ± 5 nM. The Ki in test [3] worked out at 188 nM; in test [4], 6.9 nM.

As a reminder, the IC50 is the concentration that inhibits the measured activity by half. Usually Ki stands for the dissociation constant of the complex between target and ligand, obtained from inhibition or displacement.
